Reference: patent US11878001B2, “Use of mavoglurant in the reduction of cocaine use or in preventing relapse into cocaine use” (NOVARTIS AG, priority 2017, dated 2024)
“Also recorded” adds a separate entry of the source.

What was measured:
rats = conditions: cited from earlier work
mice = conditions: cited from earlier work
monoamine oxidase = conditions: cited from earlier work
NMDA receptors = conditions: cited from earlier work
[1] = target: norepinephrine transporter (Homo sapiens, UniProt P23975); conditions: cited from earlier work
Sequence of norepinephrine transporter (P23975 whole entry, species assumed): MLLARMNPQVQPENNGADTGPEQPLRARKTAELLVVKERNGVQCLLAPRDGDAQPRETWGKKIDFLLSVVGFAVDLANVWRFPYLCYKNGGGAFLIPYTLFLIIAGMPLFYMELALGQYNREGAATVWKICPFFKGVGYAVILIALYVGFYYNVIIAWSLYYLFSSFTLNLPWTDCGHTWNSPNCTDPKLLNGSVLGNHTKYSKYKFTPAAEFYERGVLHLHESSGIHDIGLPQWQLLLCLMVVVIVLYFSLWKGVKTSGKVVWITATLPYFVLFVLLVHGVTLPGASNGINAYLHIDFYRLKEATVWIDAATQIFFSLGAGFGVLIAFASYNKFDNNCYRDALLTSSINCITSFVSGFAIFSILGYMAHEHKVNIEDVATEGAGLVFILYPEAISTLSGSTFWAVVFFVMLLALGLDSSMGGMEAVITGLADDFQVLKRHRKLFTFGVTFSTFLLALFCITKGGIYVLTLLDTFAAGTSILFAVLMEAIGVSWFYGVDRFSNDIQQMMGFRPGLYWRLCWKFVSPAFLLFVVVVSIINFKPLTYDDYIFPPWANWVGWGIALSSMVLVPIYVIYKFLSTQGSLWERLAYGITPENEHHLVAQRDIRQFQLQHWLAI

cytochrome P450 1A2 = target: T1, cytochrome P450 1A2 (Homo sapiens, UniProt P05177); conditions: cited from earlier work
T1 sequence (P05177 1-516): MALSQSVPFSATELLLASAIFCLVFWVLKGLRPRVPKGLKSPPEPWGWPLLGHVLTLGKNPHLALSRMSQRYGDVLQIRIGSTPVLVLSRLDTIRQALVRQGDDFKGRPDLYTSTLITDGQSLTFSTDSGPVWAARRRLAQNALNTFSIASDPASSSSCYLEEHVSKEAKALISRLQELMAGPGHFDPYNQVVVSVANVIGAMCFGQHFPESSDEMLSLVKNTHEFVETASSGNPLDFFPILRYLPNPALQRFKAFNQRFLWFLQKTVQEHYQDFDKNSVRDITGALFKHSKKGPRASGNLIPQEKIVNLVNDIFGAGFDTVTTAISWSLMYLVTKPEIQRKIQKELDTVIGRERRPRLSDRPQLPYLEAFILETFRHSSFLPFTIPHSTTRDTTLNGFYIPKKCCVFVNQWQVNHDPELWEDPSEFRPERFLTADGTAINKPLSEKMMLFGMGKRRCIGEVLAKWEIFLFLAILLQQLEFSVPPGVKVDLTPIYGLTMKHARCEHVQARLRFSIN

[2] = in vivo; cited from earlier work
Sprague-Dawley rats [3] = experiment: Acute effects on intravenous cocaine self-administration (FR5) in rats, Phase I; type: in vivo; conditions: cocaine 0.3 mg/kg/infusion
Description: (§1) Evaluation of the Effects of Mavoglurant on Cocaine Dependence and Cocaine Reinstatement Using the Intravenous Self-Administration Model in Sprague-Dawley Rats
(§2) Adult male Sprague-Dawley rats (300-325 g at arrival) from Harlan Laboratory (Indiana, USA) were used. Upon arrival, the rats were assigned a unique identification numbers (tail marks). Animals were single housed in suspended polycarbonate rat cages with filter tops, and were acclimated for up to 7 days. All rats were examined, handled, and weighed prior to initiation of the study to assure adequate health and suitability. During the course of the study, 12 h/12 h light/dark cycles were maintained. The room temperature was 21-23° C. with a relative humidity maintained at 30-70%. Water was provided ad libitum for the duration of the study.
Cocaine Hydrochloride (Sigma-Aldrich, USA) (1.05 mg/ml which is equivalent to 0.3 mg/kg/infusion under 350 g body weight and 0.1 ml/infusion rate) was dissolved in saline (0.9% NaCl). The formulation was a clear solution.
(§3) Mavoglurant (free form) was formulated in 0.5% methylcellulose (MC) at 1, 3 and 10 mg/kg and administered orally at a dose volume of 1 ml/kg 60 minutes prior to test.
Intravenous drug self-administration took place in sound attenuated operant chambers equipped with an exhaust fan (Med Associates, VT). Each chamber contained two levers situated on one wall of the chamber. Only one of the two levers was active (located on the left side). Pressing the active lever caused delivery of reinforcer (food or cocaine). […] A stimulus light was located above each lever, but only the one above the active lever was on during the timeout period (defined below). A house light (providing illumination) was located at the top of opposite wall. For food training (see details below), a pellet receptacle was situated between the two levers for delivery of food pellets (Bio-Serv's Dustless Precision Pellets #F0165, 45 mg). […]

Sprague-Dawley rats [4] = experiment: Cue-induced reinstatement of the cocaine self-administration response after extinction, Phase II; type: in vivo; conditions: 10 mg/kg PO, 1 hour prior to test; after 9-day extinction; N=14-15 per group
Description: as §1, §2, §3
Intravenous drug self-administration took place in sound attenuated operant chambers equipped with an exhaust fan (Med Associates, VT). Each chamber contained two levers situated on one wall of the chamber. […]
During the reinstatement session, which occurred one day after the last extinction session, rats were presented the cues (flash+tone) at the beginning of the session and their lever-press responses recorded. […]

Question: Which cocaine self-administration (rats) does the source give for `Cc1cccc(C#Cc2ccccc2)n1` [MPEP, 2-methyl-6-(2-phenylethynyl)pyridine] here?
Answer: The cocaine self-administration was “decreased cocaine self-administration”.

Question: What about the cocaine self-administration (mice) of the same compound?
Answer: Its cocaine self-administration is “decreased cocaine self-administration”.

Question: And the “off-target effects on monoamine oxidase” value (monoamine oxidase)?
Answer: Its value is “off-target effects”.

Question: And the “off-target effects on NMDA receptors” value (NMDA receptors)?
Answer: Its value is “off-target effects”.

Question: What about the “off-target effects on the norepinephrine transporter” value [1] of the same compound?
Answer: Its value is “off-target effects”.

Question: Which cocaine self-administration (rats) does the source give for `Cc1nc(C#Cc2cccnc2)cs1` [MTEP, 3-[2-(2-methylthiazol-4-yl)ethynyl]pyridine] here?
Answer: Its cocaine self-administration is “decreased cocaine self-administration”.

Question: What about the cocaine self-administration (mice) of the same compound?
Answer: Its cocaine self-administration is “decreased cocaine self-administration”.

Question: And the “inhibition of cytochrome P450 1A2” value (cytochrome P450 1A2)?
Answer: Its value is “potent inhibition”.

Question: Which results are given for `CNCCCN1c2ccccc2CCc2ccccc21` [desipramine]?
Answer: cocaine craving [2]: reduce; cocaine use [2]: reduce; symptoms of cocaine withdrawal [2]: alleviate symptoms of cocaine withdrawal

Question: Which “responding on the active lever (cocaine self-administration)” value (shortened to “responding on the active lever”) (Sprague-Dawley rats [3]; 3 mg/kg orally, 60 minutes prior to test, post hoc p<0.10, N=12) does the source give for `COC(=O)N1CC[C@@H]2[C@H]1CCC[C@@]2(O)C#Cc1cccc(C)c1` [mavoglurant, (−)-(3aR,4S,7aR)-4-Hydroxy-4-m-tolylethynyl-octahydro-indole-1-carboxylic acid methyl ester] here?
Answer: The value was “tended to reduce responding on the active lever”.

Question: And the “responding on the active lever” value (Sprague-Dawley rats [3]; 10 mg/kg PO, 1 hour prior to test, post hoc p<0.001, N=12)?
Answer: Its value is “significantly reduced responding”.

Question: And the “responding on the active lever” value (Sprague-Dawley rats [3]; 10 mg/kg PO, 1 hour prior to test, post hoc p<0.001, N=12, listed as Mavoglurant)?
Answer: The value was “significantly reduced cocaine self-administration”.

Question: What about the “cue-induced reinstatement of the self-administration response” value (Sprague-Dawley rats [4]) of the same compound?
Answer: Its value is “cue-induced reinstatement was suppressed; also recorded: completely prevented cue-induced reinstatement”.
